# Assays:
# [1] = target: Sodium-dependent dopamine transporter (Rattus norvegicus) (UniProt P23977); assay: Inhibition of binding affinity for dopamine transporter (DAT) by competition against bound [3H]WIN-35428 tested in vitro at a dose of 100 uM
# [2] = target: Sodium-dependent serotonin transporter (Rattus norvegicus, UniProt P31652); assay: Displacement of [3H]paroxetine from serotonin transporter (SERT)
# [3] = target: Sodium-dependent dopamine transporter (Rattus norvegicus, UniProt P23977); assay: Displacement of [3H]WIN-35428 from dopamine transporter (DAT)
# Sequence of Sodium-dependent dopamine transporter (P23977 whole entry): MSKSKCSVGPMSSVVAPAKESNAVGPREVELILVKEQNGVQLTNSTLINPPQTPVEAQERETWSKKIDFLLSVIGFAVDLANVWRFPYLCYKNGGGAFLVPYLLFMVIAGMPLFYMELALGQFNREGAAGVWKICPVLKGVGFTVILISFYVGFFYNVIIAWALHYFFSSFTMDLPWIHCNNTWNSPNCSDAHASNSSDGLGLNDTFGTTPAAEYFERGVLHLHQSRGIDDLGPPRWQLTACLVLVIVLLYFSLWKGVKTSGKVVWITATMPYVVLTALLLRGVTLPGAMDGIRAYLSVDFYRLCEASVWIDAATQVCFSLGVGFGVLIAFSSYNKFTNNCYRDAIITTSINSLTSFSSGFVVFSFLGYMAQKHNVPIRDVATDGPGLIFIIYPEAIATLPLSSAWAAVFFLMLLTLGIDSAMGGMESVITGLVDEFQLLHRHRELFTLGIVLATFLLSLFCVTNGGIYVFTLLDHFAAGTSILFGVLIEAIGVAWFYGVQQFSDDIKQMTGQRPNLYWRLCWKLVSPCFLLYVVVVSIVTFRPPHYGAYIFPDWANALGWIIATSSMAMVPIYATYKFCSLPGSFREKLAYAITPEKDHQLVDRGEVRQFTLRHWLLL
# [4] = target: Monoamine transporters; serotonin & dopamine (Rattus norvegicus) (UniProt P31652+P23977); assay: Relative affinity for dopamine and serotonin transporters; format: protein assay
# Sequence of Monoamine transporters; serotonin & dopamine (Rattus norvegicus) (P23977 whole entry, looked up): as the sequence (P23977 whole entry) above
# Sequence of Monoamine transporters; serotonin & dopamine (Rattus norvegicus) (P31652 whole entry, looked up): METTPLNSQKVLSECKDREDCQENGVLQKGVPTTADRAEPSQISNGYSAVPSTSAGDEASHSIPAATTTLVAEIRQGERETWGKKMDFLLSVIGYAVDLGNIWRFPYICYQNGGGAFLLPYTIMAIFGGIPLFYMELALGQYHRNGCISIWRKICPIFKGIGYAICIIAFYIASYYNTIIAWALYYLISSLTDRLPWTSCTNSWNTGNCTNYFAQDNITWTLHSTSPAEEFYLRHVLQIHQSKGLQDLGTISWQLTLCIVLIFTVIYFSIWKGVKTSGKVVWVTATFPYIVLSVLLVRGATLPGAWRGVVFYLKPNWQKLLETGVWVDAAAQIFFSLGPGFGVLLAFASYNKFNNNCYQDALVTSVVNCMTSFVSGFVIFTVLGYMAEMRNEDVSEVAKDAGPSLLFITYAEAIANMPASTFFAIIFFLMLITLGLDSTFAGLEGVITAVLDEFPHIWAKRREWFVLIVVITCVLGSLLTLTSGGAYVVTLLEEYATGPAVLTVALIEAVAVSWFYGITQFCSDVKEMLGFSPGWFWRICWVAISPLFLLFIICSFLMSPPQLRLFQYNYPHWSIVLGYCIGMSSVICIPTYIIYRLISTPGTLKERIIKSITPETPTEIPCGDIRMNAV
# Sequence of Sodium-dependent serotonin transporter (P31652 whole entry): as the sequence (P31652 whole entry, looked up) above
# Sequence of Sodium-dependent dopamine transporter (Rattus norvegicus) (P23977 whole entry): as the sequence (P23977 whole entry) above
Structure (SMILES),inhibition [1],Ki [2],Ki [3],Selectivity [4]
CN1CCC(C#N)(c2ccc(F)cc2)CC1,45%,10.1 µM,,
CCOC(=O)C1(c2ccc(Cl)c(Cl)c2)CCN(C)CC1,,0.019 µM,0.125 µM,6.68
CCOC(=O)C1(c2ccc3ccccc3c2)CCN(C)CC1,,0.0072 µM,1.14 µM,158
CCOC(=O)C1(c2ccc(F)cc2)CCN(C)CC1,,0.308 µM,10.7 µM,34.7
CCOC(=O)C1(c2ccc(C)cc2)CCN(C)CC1,68%,1.61 µM,12.4 µM,7.69
CN1CCC(C#N)(c2ccc3ccccc3c2)CC1,,0.125 µM,2.36 µM,18.9
Cc1ccc(C2(C#N)CCN(C)CC2)cc1,68%,13.7 µM,41.8 µM,3.06
CN1CCC(C#N)(c2cccc3ccccc23)CC1,,1.02 µM,16 µM,16.7
CCOC(=O)C1(c2ccc(I)cc2)CCN(C)CC1,,0.021 µM,3.25 µM,155
CN1CCC(C#N)(c2ccc(Cl)c(Cl)c2)CC1,,0.805 µM,2.67 µM,3.32
CCOC(=O)C1(c2ccc(Cl)cc2)CCN(C)CC1,79%,0.277 µM,4.1 µM,14.8
CN1CCC(C#N)(c2ccc(Cl)cc2)CC1,79%,5.11 µM,22 µM,4.31
CN1CCC(C#N)(c2ccc(I)cc2)CC1,,0.43 µM,,19.4
